pIC50: −log10 of the molar value. Each block holds one compound with its values, some of them ahead of it. Active and inactive are the calls of the source. The rule behind the calls is not given here.
Legend:
[1] = target: T1, Mitogen-activated protein kinase 8 (Homo sapiens, UniProt P45983); experiment: Inhibition of human JNK1 at 10 uM in presence of ATP relative to control
[2] = target: Voltage-gated inwardly rectifying potassium channel KCNH2 (Homo sapiens, UniProt Q12809); experiment: Inhibition of human ERG; format: toxicity
Chain of Voltage-gated inwardly rectifying potassium channel KCNH2 (Q12809 whole entry): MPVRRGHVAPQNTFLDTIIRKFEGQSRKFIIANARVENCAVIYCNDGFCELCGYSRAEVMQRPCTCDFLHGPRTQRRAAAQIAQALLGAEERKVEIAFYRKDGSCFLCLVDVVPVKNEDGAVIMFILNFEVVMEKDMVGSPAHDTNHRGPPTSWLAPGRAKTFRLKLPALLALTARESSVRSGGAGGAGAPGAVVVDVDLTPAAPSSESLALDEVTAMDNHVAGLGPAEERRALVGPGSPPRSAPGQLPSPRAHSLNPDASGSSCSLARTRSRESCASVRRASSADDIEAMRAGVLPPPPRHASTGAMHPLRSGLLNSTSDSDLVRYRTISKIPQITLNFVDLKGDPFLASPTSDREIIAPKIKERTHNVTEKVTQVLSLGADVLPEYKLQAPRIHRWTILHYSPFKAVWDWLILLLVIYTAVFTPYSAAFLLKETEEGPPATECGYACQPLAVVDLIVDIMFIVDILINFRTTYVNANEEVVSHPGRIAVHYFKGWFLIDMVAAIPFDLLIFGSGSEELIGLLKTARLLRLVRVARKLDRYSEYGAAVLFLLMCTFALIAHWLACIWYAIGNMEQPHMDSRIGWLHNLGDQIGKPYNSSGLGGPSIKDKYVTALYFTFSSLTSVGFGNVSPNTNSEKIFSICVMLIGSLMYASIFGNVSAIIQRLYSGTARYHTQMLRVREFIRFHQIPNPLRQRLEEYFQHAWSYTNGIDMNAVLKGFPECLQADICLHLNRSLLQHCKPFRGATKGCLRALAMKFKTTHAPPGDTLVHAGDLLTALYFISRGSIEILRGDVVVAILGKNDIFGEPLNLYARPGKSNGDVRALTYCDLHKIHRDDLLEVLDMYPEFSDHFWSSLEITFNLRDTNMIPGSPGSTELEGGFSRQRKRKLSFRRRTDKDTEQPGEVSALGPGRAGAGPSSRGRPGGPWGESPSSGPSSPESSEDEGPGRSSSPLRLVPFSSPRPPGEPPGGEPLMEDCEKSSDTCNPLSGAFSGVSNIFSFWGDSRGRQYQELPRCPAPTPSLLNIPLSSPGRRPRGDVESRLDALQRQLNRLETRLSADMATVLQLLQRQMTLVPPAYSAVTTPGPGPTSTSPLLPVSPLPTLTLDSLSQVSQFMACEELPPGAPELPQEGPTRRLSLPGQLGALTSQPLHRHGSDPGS

[3] = target: T2, Mitogen-activated protein kinase 9 (Homo sapiens, UniProt P45984); experiment: Inhibition of human JNK2 at 10 uM in presence of ATP relative to control
Target sequence in this assay (P45984 whole entry, looked up): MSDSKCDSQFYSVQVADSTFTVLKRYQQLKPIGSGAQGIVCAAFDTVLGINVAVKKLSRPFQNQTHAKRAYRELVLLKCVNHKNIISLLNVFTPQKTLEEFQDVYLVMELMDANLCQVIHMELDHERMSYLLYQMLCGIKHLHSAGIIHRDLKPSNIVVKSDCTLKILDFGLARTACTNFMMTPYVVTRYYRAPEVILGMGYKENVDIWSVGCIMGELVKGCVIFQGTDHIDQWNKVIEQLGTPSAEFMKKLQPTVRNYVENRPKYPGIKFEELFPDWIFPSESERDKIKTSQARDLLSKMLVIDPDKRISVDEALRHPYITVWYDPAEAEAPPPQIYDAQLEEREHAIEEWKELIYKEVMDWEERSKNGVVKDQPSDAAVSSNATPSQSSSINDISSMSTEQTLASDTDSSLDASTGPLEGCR

[4] = target: T3, Mitogen-activated protein kinase 10 (Homo sapiens, UniProt P53779); experiment: Inhibition of human JNK3 at 10 uM in presence of ATP relative to control
T3 sequence (P53779 whole entry): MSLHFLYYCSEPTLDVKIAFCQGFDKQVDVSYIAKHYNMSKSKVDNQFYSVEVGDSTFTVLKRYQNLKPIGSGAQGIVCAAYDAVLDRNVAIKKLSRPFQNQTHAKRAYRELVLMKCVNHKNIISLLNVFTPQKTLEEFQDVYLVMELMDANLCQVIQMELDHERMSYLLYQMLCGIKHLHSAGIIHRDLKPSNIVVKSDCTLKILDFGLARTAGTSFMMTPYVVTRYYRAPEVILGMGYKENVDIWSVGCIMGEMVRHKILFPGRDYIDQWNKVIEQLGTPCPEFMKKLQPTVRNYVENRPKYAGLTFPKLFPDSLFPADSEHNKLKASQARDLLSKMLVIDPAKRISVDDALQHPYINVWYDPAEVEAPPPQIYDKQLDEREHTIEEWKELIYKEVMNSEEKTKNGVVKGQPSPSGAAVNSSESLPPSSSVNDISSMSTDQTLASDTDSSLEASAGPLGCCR

[5] = target: T1, Mitogen-activated protein kinase 8; experiment: Inhibition of human JNK1 in presence of ATP
[6] = target: T3, Mitogen-activated protein kinase 10; experiment: Inhibition of human JNK3 in presence of ATP
[7] = target: T2, Mitogen-activated protein kinase 9; experiment: Inhibition of human JNK2 in presence of ATP
Target sequence in this assay (P45984 whole entry): as the sequence (P45984 whole entry, looked up) above

K562 [8] = experiment: Induction of apoptosis in human K562 cells assessed as early apoptotic cells at 5 uM incubated for 24 hrs by annexinV and propidium iodide staining based flow cytometry analysis (reference value: 1.17%); format: functional
K562 [9] = experiment: Induction of cell cycle arrest in human K562 cells assessed as accumulation of cells at SubG1 phase at 5 uM measured after 24 hrs by PI staining based flow cytometry analysis (reference value: 2.21%); format: functional
Cytochrome P450 3A4 = Cytochrome P450 3A4 (Homo sapiens, UniProt P08684); experiment: Inhibition of CYP3A4 (unknown origin) using vivid BOMCC as substrate; format: ADME
Chain of Cytochrome P450 3A4 (P08684 whole entry): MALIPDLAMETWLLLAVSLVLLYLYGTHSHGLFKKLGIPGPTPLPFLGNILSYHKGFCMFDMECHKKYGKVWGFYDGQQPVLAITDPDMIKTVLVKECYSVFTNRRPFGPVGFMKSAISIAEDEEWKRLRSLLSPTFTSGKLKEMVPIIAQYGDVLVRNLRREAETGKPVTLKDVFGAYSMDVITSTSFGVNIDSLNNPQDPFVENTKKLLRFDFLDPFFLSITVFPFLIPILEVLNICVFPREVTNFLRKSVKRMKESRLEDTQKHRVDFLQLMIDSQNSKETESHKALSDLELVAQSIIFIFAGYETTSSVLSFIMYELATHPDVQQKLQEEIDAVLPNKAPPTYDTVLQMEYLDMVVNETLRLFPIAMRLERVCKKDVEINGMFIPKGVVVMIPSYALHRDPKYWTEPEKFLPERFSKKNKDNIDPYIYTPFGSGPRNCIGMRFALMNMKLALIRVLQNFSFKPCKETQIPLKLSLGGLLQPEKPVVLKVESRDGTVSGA

K562 [10] = experiment: Induction of cell cycle arrest in human K562 cells assessed as accumulation of cells at G2/M phase at 5 uM measured after 24 hrs by PI staining based flow cytometry analysis (reference value: 25.62%); format: functional
K562 [11] = experiment: Induction of cell cycle arrest in human K562 cells assessed as accumulation of cells at G0/G1 phase at 1.25 uM measured after 24 hrs by PI staining based flow cytometry analysis (reference value: 46.72%); format: functional
K562 [12] = experiment: Induction of cell cycle arrest in human K562 cells assessed as accumulation of cells at G2/M phase at 1.25 uM measured after 24 hrs by PI staining based flow cytometry analysis (reference value: 25.62%); format: functional
K562 [13] = experiment: Induction of cell cycle arrest in human K562 cells assessed as accumulation of cells at S phase at 2.5 uM measured after 24 hrs by PI staining based flow cytometry analysis (reference value: 24.75%); format: functional
K562 [14] = experiment: Induction of apoptosis in human K562 cells assessed as late apoptotic cells at 5 uM incubated for 24 hrs by annexinV and propidium iodide staining based flow cytometry analysis (reference value: 0.82%); format: functional
Cytochrome P450 2D6 = Cytochrome P450 2D6 (Homo sapiens, UniProt P10635); experiment: Inhibition of CYP2D6 (unknown origin) using vivid EOMCC as substrate; format: ADME
Chain of Cytochrome P450 2D6 (P10635 whole entry): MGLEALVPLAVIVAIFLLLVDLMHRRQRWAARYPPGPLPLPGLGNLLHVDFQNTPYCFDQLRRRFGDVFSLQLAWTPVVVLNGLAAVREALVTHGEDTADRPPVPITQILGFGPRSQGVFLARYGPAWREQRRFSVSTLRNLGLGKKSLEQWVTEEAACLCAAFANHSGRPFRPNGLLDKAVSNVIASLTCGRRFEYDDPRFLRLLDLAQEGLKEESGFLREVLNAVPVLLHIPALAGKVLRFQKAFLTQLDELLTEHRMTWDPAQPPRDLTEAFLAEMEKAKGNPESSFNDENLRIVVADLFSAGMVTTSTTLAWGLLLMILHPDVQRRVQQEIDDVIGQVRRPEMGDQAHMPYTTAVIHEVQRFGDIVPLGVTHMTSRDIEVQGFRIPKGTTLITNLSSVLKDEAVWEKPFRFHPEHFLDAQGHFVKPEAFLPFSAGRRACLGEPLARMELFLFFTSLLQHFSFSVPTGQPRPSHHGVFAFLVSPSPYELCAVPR

K562 [15] = experiment: Induction of cell cycle arrest in human K562 cells assessed as accumulation of cells at SubG1 phase at 1.25 uM measured after 24 hrs by PI staining based flow cytometry analysis (reference value: 2.21%); format: functional
K562 [16] = experiment: Induction of cell cycle arrest in human K562 cells assessed as accumulation of cells at S phase at 5 uM measured after 24 hrs by PI staining based flow cytometry analysis (reference value: 24.75%); format: functional
K562 [17] = experiment: Induction of cell cycle arrest in human K562 cells assessed as accumulation of cells at G2/M phase at 2.5 uM measured after 24 hrs by PI staining based flow cytometry analysis (reference value: 25.62%); format: functional
K562 [18] = experiment: Induction of apoptosis in human K562 cells assessed as early apoptotic cells at 1.25 uM incubated for 24 hrs by annexinV and propidium iodide staining based flow cytometry analysis (reference value: 1.17%); format: functional
K562 [19] = experiment: Induction of cell cycle arrest in human K562 cells assessed as accumulation of cells at G0/G1 phase at 5 uM measured after 24 hrs by PI staining based flow cytometry analysis (reference value: 46.72%); format: functional
K562 [20] = experiment: Induction of apoptosis in human K562 cells assessed as late apoptotic cells at 1.25 uM incubated for 24 hrs by annexinV and propidium iodide staining based flow cytometry analysis (reference value: 0.82%); format: functional
K562 [21] = experiment: Induction of apoptosis in human K562 cells assessed as early apoptotic cells at 2.5 uM incubated for 24 hrs by annexinV and propidium iodide staining based flow cytometry analysis (reference value: 1.17%); format: functional
K562 [22] = experiment: Induction of cell cycle arrest in human K562 cells assessed as accumulation of cells at G0/G1 phase at 2.5 uM measured after 24 hrs by PI staining based flow cytometry analysis (reference value: 46.72%); format: functional
K562 [23] = experiment: Induction of autophagy in human K562 cells assessed as increase in beclin-1 level at 2.5 to 5 uM measured after 24 hrs by Western blotting analysis; format: functional, cell-based; settings: dose 2.5-5 µM
K562 [24] = experiment: Induction of apoptosis in human K562 cells assessed as late apoptotic cells at 2.5 uM incubated for 24 hrs by annexinV and propidium iodide staining based flow cytometry analysis (reference value: 0.82%); format: functional
K562 [25] = experiment: Induction of cell cycle arrest in human K562 cells assessed as accumulation of cells at S phase at 1.25 uM measured after 24 hrs by PI staining based flow cytometry analysis (reference value: 24.75%); format: functional
K562 [26] = experiment: Induction of cell cycle arrest in human K562 cells assessed as accumulation of cells at SubG1 phase at 2.5 uM measured after 24 hrs by PI staining based flow cytometry analysis (reference value: 2.21%); format: functional
[27] = target: T1, Mitogen-activated protein kinase 8; experiment: Inhibition of JNK1 (unknown origin) expressed in HEK293 cells assessed as target engagement incubated for 1 hr by NanoBRET assay; format: cell-based

T1 sequence (P45983 whole entry): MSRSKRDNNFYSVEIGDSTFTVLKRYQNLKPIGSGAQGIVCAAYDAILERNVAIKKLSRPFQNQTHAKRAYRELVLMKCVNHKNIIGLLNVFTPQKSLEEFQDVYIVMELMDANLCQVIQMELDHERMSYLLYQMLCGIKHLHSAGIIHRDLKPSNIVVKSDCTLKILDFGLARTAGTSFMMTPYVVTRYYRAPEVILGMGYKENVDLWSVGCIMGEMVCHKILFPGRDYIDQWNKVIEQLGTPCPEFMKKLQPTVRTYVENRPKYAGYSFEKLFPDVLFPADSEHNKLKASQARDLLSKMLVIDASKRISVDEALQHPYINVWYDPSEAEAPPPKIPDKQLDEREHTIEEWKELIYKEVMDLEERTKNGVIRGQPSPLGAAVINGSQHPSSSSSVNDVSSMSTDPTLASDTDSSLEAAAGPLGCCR

Structure (SMILES): CC(C)(C)n1cc(-c2ccnc(NCCNS(=O)(=O)c3ccc(Cl)cc3)c2)c(-c2cccc(O)c2)n1
inhibition [1]: 78.7%

Structure (SMILES): CCNC1CCNC1 (centres undefined)
pIC50 [2]: 7.89

Structure (SMILES): CC(C)(C)n1cc(-c2ccnc(NCCNS(=O)(=O)c3ccccc3)c2)c(-c2cccc(O)c2)n1
inhibition [1]: 81.8%

Structure (SMILES): Cc1ccc(S(=O)(=O)NCCCNc2cc(-c3cn(C(C)(C)C)nc3-c3cccc(O)c3)ccn2)cc1
inhibition [4]: 98.2%
pIC50 [5]: 7.82
inhibition [3]: 98.8%
inhibition [1]: 97%

Structure (SMILES): COc1cccc(-c2nn(C(C)(C)C)cc2-c2ccnc(NCCCNS(=O)(=O)c3cccc(F)c3)c2)c1
inhibition [1]: 29.9%

Structure (SMILES): COc1cccc(-c2nn(C(C)(C)C)cc2-c2ccnc(NCCCNS(=O)(=O)c3cccc4ccccc34)c2)c1
inhibition [1]: 21.3%

Structure (SMILES): CC(C)(C)n1cc(-c2ccnc(NCCCNS(=O)(=O)c3ccc(F)cc3)c2)c(-c2cccc(O)c2)n1
pIC50 [6]: 8.00
inhibition [4]: 98.5%
pIC50 [5]: 8.46
pIC50 [7]: 7.70
inhibition [3]: 98.9%
inhibition [1]: 96.8%

Structure (SMILES): CC(C)(C)n1cc(-c2ccnc(NCCNS(=O)(=O)c3ccc(Br)cc3)c2)c(-c2cccc(O)c2)n1
inhibition [1]: 74%

Structure (SMILES): CC(C)(C)n1cc(-c2ccnc(NCCNS(=O)(=O)c3cccc(F)c3)c2)c(-c2cccc(O)c2)n1
inhibition [1]: 86.4%

Structure (SMILES): CC(C)(C)n1cc(-c2ccnc(NCCCNS(=O)(=O)c3cccc(F)c3)c2)c(-c2cccc(O)c2)n1
inhibition [4]: 98.2%
pIC50 [5]: 8.17
inhibition [3]: 98.5%
inhibition [1]: 98.4%

Structure (SMILES): CC(C)(C)n1cc(-c2ccnc(NCCNS(=O)(=O)c3cccc4ccccc34)c2)c(-c2cccc(O)c2)n1
inhibition [1]: 63.7%

Structure (SMILES): CC(C)(C)n1cc(-c2ccnc(NCCCNS(=O)(=O)c3ccccc3)c2)c(-c2cccc(O)c2)n1
pIC50 [6]: 7.69
inhibition [4]: 99.1%
pIC50 [5]: 8.43
pIC50 [7]: 7.64
inhibition [3]: 98.5%
inhibition [1]: 99.4%

Structure (SMILES): CC(C)(C)n1cc(-c2ccnc(NCCNS(=O)(=O)c3ccc(C(F)(F)F)cc3)c2)c(-c2cccc(O)c2)n1
inhibition [1]: 66.6%

Now from value to compound, other results behind:

inhibition [1]: -6.18%
Structure (SMILES): COc1cccc(-c2nn(C(C)(C)C)cc2-c2ccnc(NCCNS(=O)(=O)c3ccc(Br)cc3)c2)c1

inhibition [1]: 3.91%
Structure (SMILES): COc1cccc(-c2nn(C(C)(C)C)cc2-c2ccnc(NCCNS(=O)(=O)c3ccc(F)cc3)c2)c1

inhibition [1]: 9.82%
Structure (SMILES): COc1ccc(S(=O)(=O)NCCNc2cc(-c3cn(C(C)(C)C)nc3-c3cccc(OC)c3)ccn2)cc1

inhibition [1]: 13.2%
Structure (SMILES): COc1cccc(-c2nn(C(C)(C)C)cc2-c2ccnc(NCCCNS(=O)(=O)c3ccc(C(F)(F)F)cc3)c2)c1

inhibition [1]: 41.4%
Structure (SMILES): COc1cccc(-c2nn(C(C)(C)C)cc2-c2ccnc(NCCCNS(=O)(=O)c3ccc(F)cc3)c2)c1

inhibition [3]: 68.2%
inhibition [1]: 79.6%
Structure (SMILES): COc1cccc(-c2nn(C(C)(C)C)cc2-c2ccnc(NCCCNS(=O)(=O)c3ccc(Cl)cc3)c2)c1

inhibition [1]: 49.2%
Structure (SMILES): COc1ccc(S(=O)(=O)NCCCNc2cc(-c3cn(C(C)(C)C)nc3-c3cccc(OC)c3)ccn2)cc1

inhibition [1]: 3.74%
Structure (SMILES): COc1cccc(-c2nn(C(C)(C)C)cc2-c2ccnc(NCCNS(=O)(=O)c3ccccc3)c2)c1

inhibition [1]: 0.99%
Structure (SMILES): COc1cccc(-c2nn(C(C)(C)C)cc2-c2ccnc(NCCNS(=O)(=O)c3ccc(Cl)cc3)c2)c1

inhibition [1]: 38.8%
Structure (SMILES): COc1cccc(-c2nn(C(C)(C)C)cc2-c2ccnc(NCCCNS(=O)(=O)c3ccccc3)c2)c1

inhibition [1]: 85.8%
Structure (SMILES): Cc1ccc(S(=O)(=O)NCCNc2cc(-c3cn(C(C)(C)C)nc3-c3cccc(O)c3)ccn2)cc1

inhibition [4]: 96.2%
pIC50 [5]: 7.25
inhibition [3]: 94.4%
inhibition [1]: 90.6%
Structure (SMILES): COc1ccc(S(=O)(=O)NCCNc2cc(-c3cn(C(C)(C)C)nc3-c3cccc(O)c3)ccn2)cc1

inhibition [1]: 87.2%
Structure (SMILES): CC(C)(C)n1cc(-c2ccnc(NCCNS(=O)(=O)c3ccc(F)cc3)c2)c(-c2cccc(O)c2)n1

inhibition [3]: 57.7%
inhibition [1]: 73.7%
Structure (SMILES): COc1cccc(-c2nn(C(C)(C)C)cc2-c2ccnc(NCCCNS(=O)(=O)c3ccc(Br)cc3)c2)c1

inhibition [1]: 4.68%
Structure (SMILES): COc1cccc(-c2nn(C(C)(C)C)cc2-c2ccnc(NCCNS(=O)(=O)c3ccc(C)cc3)c2)c1

inhibition [1]: 37.8%
Structure (SMILES): COc1cccc(-c2nn(C(C)(C)C)cc2-c2ccnc(NCCCNS(=O)(=O)c3ccc(C)cc3)c2)c1

pIC50 [6]: 7.98
pIC50 (Cytochrome P450 3A4): 6.42
inhibition [4]: 98%
pIC50 (Cytochrome P450 2D6): 7.57
pIC50 [5]: 8.74
pIC50 [7]: 7.90
inhibition [3]: 98.5%
inhibition [1]: 99.6%
pIC50 [27]: 5.55
Structure (SMILES): COc1ccc(S(=O)(=O)NCCCNc2cc(-c3cn(C(C)(C)C)nc3-c3cccc(O)c3)ccn2)cc1
Activity (K562 [8]): 2.14%
Activity (K562 [9]): 0.09%
Activity (K562 [10]): 98.97%
Activity (K562 [11]): 19.83%
Activity (K562 [12]): 45.33%
Activity (K562 [13]): 29.83%
Activity (K562 [14]): 0.59%
Activity (K562 [15]): 1.34%
Activity (K562 [16]): 0.34%
pIC50 [2]: 5.32
Activity (K562 [17]): 62.99%
Activity (K562 [18]): 1.89%
Activity (K562 [19]): 0.17%
Activity (K562 [20]): 0.52%
Activity (K562 [21]): 1.94%
Activity (K562 [22]): 6.24%
Activity (K562 [23]): Active
Activity (K562 [24]): 0.73%
Activity (K562 [25]): 32.54%
Activity (K562 [26]): 0.34%

Reference: ChEMBL document CHEMBL5634117 (Eur J Med Chem, 2023)
